In the experiment the target is T1, recombinant human GR (Homo sapiens, UniProt P04150).
T1 construct: purchased Panvera/Invitrogen P2812 (kit P2893)
T1 sequence (P04150 1-777): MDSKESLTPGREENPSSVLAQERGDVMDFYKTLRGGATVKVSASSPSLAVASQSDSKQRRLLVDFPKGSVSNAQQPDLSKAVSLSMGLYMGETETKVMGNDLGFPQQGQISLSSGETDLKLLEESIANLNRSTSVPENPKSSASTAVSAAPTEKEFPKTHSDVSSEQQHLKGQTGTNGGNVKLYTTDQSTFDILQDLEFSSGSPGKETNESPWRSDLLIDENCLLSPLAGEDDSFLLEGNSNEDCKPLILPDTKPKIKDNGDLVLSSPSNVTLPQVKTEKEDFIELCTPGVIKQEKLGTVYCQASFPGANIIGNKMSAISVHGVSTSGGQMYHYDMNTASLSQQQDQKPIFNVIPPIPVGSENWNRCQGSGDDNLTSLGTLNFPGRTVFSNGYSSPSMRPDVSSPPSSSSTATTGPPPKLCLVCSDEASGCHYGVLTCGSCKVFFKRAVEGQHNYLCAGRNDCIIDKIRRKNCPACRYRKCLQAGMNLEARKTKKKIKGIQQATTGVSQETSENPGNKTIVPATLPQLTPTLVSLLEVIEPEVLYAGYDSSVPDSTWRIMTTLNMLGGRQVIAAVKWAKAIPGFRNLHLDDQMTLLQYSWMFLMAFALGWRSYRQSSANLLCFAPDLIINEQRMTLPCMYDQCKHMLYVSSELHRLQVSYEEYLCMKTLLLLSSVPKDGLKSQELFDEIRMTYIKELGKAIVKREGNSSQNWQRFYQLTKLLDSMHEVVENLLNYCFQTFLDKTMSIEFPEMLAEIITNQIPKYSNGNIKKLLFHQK
The experiment in a line: Human Glucocorticoid Receptor (GR) Assay (fluorescence polarization, Panvera/Invitrogen kit). The following applies: GS Red tracer, 2 hours at room temperature, 100% control 10 μM Dexamethasone, read-out: Inhibition of GR binding, IC50. An outline of the steps: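 Fluorescence polarization competition binding of compounds against Fluoromone GS Red tracer on recombinant human GR, in buffer of potassium phosphate, sodium molybdate, EDTA, DMSO with stabilizing peptide and DTT. Incubated 2 h at room temperature in the dark; read at ex 530/em 590 nm. Controls: DMSO (0%), 10 μM dexamethasone (100%).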
`C[C@]12C=CC(=O)C=C1CC[C@@H]1[C@@H]2[C@@H](O)C[C@@]2(C)[C@H]1C[C@H]1O[C@@H](c3cccs3)O[C@]12C(=O)SCF` [Example 35, S-(Fluoromethyl)(4aR,4bS,5S,6aS,6bS,8R,9aR,10aS,10bS)-5-hydroxy-4a,6a-dimethyl-2-oxo-8-thiophen-2-yl-2,4a,4b,5,6,6a,9a,10,10a,10,11,12-dodecahydro-6bH-naphtho[2′,1′:4,5]indeno[1,2-d][1,3]dioxole-6b-carbothioate]: the IC50 is 1.1 nM.

As to `C[C@]12C=CC(=O)C=C1[C@@H](F)C[C@H]1[C@@H]3C[C@H]4OC(c5ccc(OC(F)(F)F)cc5)O[C@@]4(C(=O)SCC#N)[C@@]3(C)C[C@H](O)[C@@]12F` (stereo partly drawn) [Example 19, S-(Cyanomethyl)(4aS,4bR,5S,6aS,6bS,9aR,10aS,10bS,12S)-4b,12-difluoro-5-hydroxy-4a,6a-dimethyl-2-oxo-8-[4-(trifluoromethoxy)phenyl]-2,4a,4b,5,6,6a,9a,10,10a,10b,11,12-dodecahydro-6bH-naphtho[2′,1′:4,5]indeno[1,2-d][1,3]dioxole-6b-carbothioate], the half-maximal inhibitory concentration (IC50) turned out to be 4.8 nM.

As for `Cc1ccccc1C1O[C@@H]2C[C@H]3[C@@H]4C[C@H](F)C5=CC(=O)C=C[C@]5(C)[C@@]4(F)[C@@H](O)C[C@]3(C)[C@]2(C(=O)SCF)O1` (stereo partly drawn) [Example 22, S-(Fluoromethyl)(4aS,4bR,5S,6aS,6bS,9aR,10aS,10bS,12S)-4b,12-difluoro-5-hydroxy-4a,6a-dimethyl-8-(2-methylphenyl)-2-oxo-2,4a,4b,5,6,6a,9a,10,10a,10b,11,12-dodecahydro-6bH-naphtho[2′,1′:4,5]indeno[1,2-d][1,3]dioxole-6b-carbothioate], the IC50 stood at 0.85 nM.

On to `CSC(=O)[C@@]12O[C@@H](c3cccs3)O[C@@H]1C[C@H]1[C@@H]3C[C@H](F)C4=CC(=O)C=C[C@]4(C)[C@@]3(F)[C@@H](O)C[C@@]12C` [Example 4, S-Methyl (4aS,4bR,5S,6aS,6bS,8S,9aR,10aS,10bS,12S)-4b,12-difluoro-5-hydroxy-4a,6a-dimethyl-2-oxo-8-(2-thienyl)-2,4a,4b,5,6,6a,9a,10,10a,10,11,12-dodecahydro-6bH-naphtho[2′,1′:4,5]indeno[1,2-d][1,3]dioxole-6b-carbothioate], for which the IC50 turned out to be 0.96 nM.

For the compound `Cc1noc(C)c1C1O[C@@H]2C[C@H]3[C@@H]4C[C@H](F)C5=CC(=O)C=C[C@]5(C)[C@@]4(F)[C@@H](O)C[C@]3(C)[C@]2(C(=O)SCF)O1` (stereo partly drawn) [Example 33, S-(Fluoromethyl)(4aS,4bR,5S,6aS,6bS,9aR,10aS,10bS,12S)-8-(3,5-dimethylisoxazol-4-yl)-4b,12-difluoro-5-hydroxy-4a,6a-dimethyl-2-oxo-2,4a,4b,5,6,6a,9a,10,10a,10b,11,12-dodecahydro-6bH-naphtho[2′,1′:4,5]indeno[1,2-d][1,3]dioxole-6b-carbothioate], the half-maximal inhibitory concentration (IC50) was 1 nM.

For the compound `Cc1ccsc1C1O[C@@H]2C[C@H]3[C@@H]4C[C@H](F)C5=CC(=O)C=C[C@]5(C)[C@@]4(F)[C@@H](O)C[C@]3(C)[C@]2(C(=O)SCF)O1` (stereo partly drawn) [Example 13, S-(Fluoromethyl)(4aS,4bR,5S,6aS,6bS,9aR,10aS,10bS,12S)-4b,12-difluoro-5-hydroxy-4a,6a-dimethyl-8-(3-methyl-2-thienyl)-2-oxo-2,4a,4b,5,6,6a,9a,10,10a,10b,11,12-dodecahydro-6bH-naphtho[2′,1′:4,5]indeno[1,2-d][1,3]dioxole-6b-carbothioate], the 50% inhibitory concentration (IC50) stood at 0.55 nM.

Regarding `C[C@]12C=CC(=O)C=C1[C@@H](F)C[C@H]1[C@@H]3C[C@H]4OC(c5ccc(Cl)cc5)O[C@@]4(C(=O)SCF)[C@@]3(C)C[C@H](O)[C@@]12F` (stereo partly drawn) [Example 29, S-(Fluoromethyl)(4aS,4bR,5S,6aS,6bS,9aR,10aS,10bS,12S)-8-(4-chlorophenyl)-4b,12-difluoro-5-hydroxy-4a,6a-dimethyl-2-oxo-2,4a,4b,5,6,6a,9a,10,10a,10b,11,12-dodecahydro-6bH-naphtho[2′,1′:4,5]indeno[1,2-d][1,3]dioxole-6b-carbothioate], the IC50 is 1.3 nM.

In the case of `COc1ccc([C@@H]2O[C@@H]3C[C@H]4[C@@H]5CCC6=CC(=O)C=C[C@]6(C)[C@H]5[C@@H](O)C[C@]4(C)[C@]3(C(=O)SC)O2)c(F)c1` [Example 38 (8R), S-Methyl (4aR,4bS,5S,6aS,6bS,8R,9aR,10aS,10bS)-8-(2-fluoro-4-methoxyphenyl)-5-hydroxy-4a,6a-dimethyl-2-oxo-2,4a,4b,5,6,6a,9a,10,10a,10b,11,12-dodecahydro-6bH-naphtho[2′,1′:4,5]indeno[1,2-d][1,3]dioxole-6b-carbothioate], the concentration for half-maximal inhibition (IC50) was determined as 2.2 nM.

As for `C[C@]12C=CC(=O)C=C1CC[C@@H]1[C@@H]2[C@@H](O)C[C@@]2(C)[C@H]1C[C@H]1OC(c3ccccc3F)O[C@]12C(=O)SCF` (stereo partly drawn) [Example 43, S-(Fluoromethyl)(4aR,4bS,5S,6aS,6bS,9aR,10aS,10bS)-8-(2-fluorophenyl)-5-hydroxy-4a,6a-dimethyl-2-oxo-2,4a,4b,5,6,6a,9a,10,10a,10,11,12-dodecahydro-6bH-naphtho[2′,1′:4,5]indeno[1,2-d][1,3]dioxole-6b-carbothioate], the half-inhibitory concentration (IC50) is 0.81 nM.

For the compound `C[C@]12C=CC(=O)C=C1[C@@H](F)C[C@H]1[C@@H]3C[C@H]4OC(c5ccco5)O[C@@]4(C(=O)SCF)[C@@]3(C)C[C@H](O)[C@@]12F` (stereo partly shown) [Example 3], the IC50 worked out at 0.92 nM.

Values taken from patent publication US20110294766A1, “16 Alpha, 17 Alpha-Acetal Glucocorticosteroidal Derivatives and their Use” (AstraZeneca AB, priority 2008, published 2011).
